Patent US20090232750A1, “Compositions for indoor tanning” (priority 2008, published 2009)

Columns and labels:
melanocytes [1] = assay: Effect of D-ribose on melanocytes in vivo: four concentrations in commercial lotion on inside forearm; settings: for Days to maximum tan / Days to first sign of tanning: twice a day, inside forearm; for Days to first sign of tanning: no sun light; for Spread of tanned area beyond the application site: two inch application area
From the text: To determine the effect of D-ribose on melanocytes, the dermal cells that produce a tanning color when exposed to sunlight, four concentrations of D-ribose suspended in a commercial lotion were applied with a cotton applicator twice a day to two inch areas of A subject's inside forearm. The test area was not exposed to sun light. The composition of the lotion was: water, glycerin, mineral oil, stearic acid, glycol stearate, stearamide AMP, petrolatum, dimethicone, chamomile, helianthus, sambucas, theobroma, seed butter, glyceryl, stearate, cetyl alcohol, triethanolamine, acetylated lanolin alcohol and cetyl acetate. The results are shown in Table I. Application was stopped after 11 days. Color began to fade at 14 days in all cases and was gone about two weeks after last application. […] The color spread, presumably because of lateral diffusion of the D-ribose within the dermis, stimulating melanocytes outside the application site. The spread area decreased in intensity of color as the diffused D-ribose decreased in concentration.

melanocytes [2] = assay: 4% D-ribose lotion on back of forearm, applied one to four days (melanocyte stimulation vs Maillard reaction); assay type: in vivo
From the text: In order to ascertain that the tan color was due to the stimulation of melanocytes and not to a chemical reaction such as the Maillard reaction, the subject applied 4% D-ribose in the above referenced lotion to the back of the forearm. The lotion was applied one day only; two days; three days; and four days. […] By one week after application, the areas to which lotion was applied for one or two days began fading and were completely faded by ten days. The areas to which was applied for three or four days also began fading at one week after application and were completely faded by ten days after last application. The subject had areas of vitilago, a scar and freckles.

skin (tanning) = assay: D-ribose lotion tested against commercial tanning creams on upper front thigh; assay type: in vivo
Protocol: In other experiments, D-ribose was tested against Jergen's Dark Tanning cream on the upper front thigh of the subject. Each was applied liberally over a six inch by four inch area twice a day for five days. The “tanning” agent in this cream is unknown. The areas on which the Jergen's was applied tanned in 36 hours, hit maximum darkness in two days and faded in eight days. […] In this test, the D-ribose caused maximum darkness in five days and persisted for two weeks after application was discontinued.
D-ribose was also tested against l'Oreal Sublime Glow as above. The active ingredients in this cream were 7.5% octinoate, octsalate 5.0%, octocrylene 3.0% and oxybenzone 6.17%. […] This color began fading within two days of last application and was completely faded within a week.
The evenness of the D-ribose tanned areas can be attributed to the natural production of melanin due to the stimulation by D-ribose penetrating and diffusing to the dermal cells.

skin = assay: Preliminary experiments: D-ribose without penetrant applied to wound or skin; assay type: in vivo
From the text: Since the object of this invention is to deliver active ingredient to the basal and dermal cells below the epidermis, when the skin barrier is intact, it has been found necessary to include a penetrant in the solutions, lotions or creams of this invention. Such a penetrant will enhance the delivery of active ingredient by transitory disruption of the cell to cell connections of the skin. Penetrants in general include ionic detergents, non-ionic detergents, fatty acids, organic solvents and oils. Certain constructs such as liposomes and nanoparticles can also be used to transport active ingredient through the stratum corneum barrier. It is well known in the industry to select a penetrant with the desired characteristics, which vary in effect from the intense penetration of the solvent dimethyl sulfoxide (DMSO) which cause the rapid co-transport past the skin barrier of any agent present on the skin, to the milder action of dilute ethanol. Of recent interest are the constructs termed liposomes and nanoparticles, which are molecules that form closed structures that can incorporate an active ingredient. Liposomes and nanoparticles can readily penetrate otherwise impermeable barriers.
The skin is a barrier. […]

[3] = system: fibroblasts in the basal layer; settings: cited from earlier work
[4] = system: cultured normal human fibroblasts; settings: cited from earlier work
lymphocytes = settings: cell culture; U.S. Pat. No. 6,663,859; cited from earlier work
skeletal muscle ATP = settings: oral administration; U.S. Pat. Nos. 6,159,942 and 6,534,480; cited from earlier work
[5] = all cases, application stopped after 11 days
[6] = 4% D-ribose lotion applied for one or two days
[7] = 4% D-ribose lotion applied for three or four days
[8] = upper front thigh, twice a day for five days
[9] = composition containing 1% D-ribose, female volunteers

O=C[C@H](O)[C@H](O)[C@H](O)CO [D-ribose]
Days to maximum tan (melanocytes [1]; 1.0% w/v D-ribose in lotion): No tanning | Days to first sign of tanning (melanocytes [1]; 1.0% w/v D-ribose in lotion): No tanning | Color of spread area versus center of application (melanocytes [1]; 4% w/v D-ribose): diameter. The spread area is not as dark as the | Days to maximum tan (melanocytes [1]; 4% w/v D-ribose in lotion): Six | Days to first sign of tanning (melanocytes [1]; 4% w/v D-ribose in lotion): Four | Diameter of tanned area (melanocytes [1]; 4% w/v D-ribose, at six days): the tanned area is about four inches in | Spread of tanned area beyond the application site (melanocytes [1]; 4% w/v D-ribose, at six days): two inches beyond the application site, that is, | Color of tan compared with other concentration (melanocytes [1]; 6% w/v D-ribose): A little darker than the 4%, the tanned area has | Diameter of tanned area (melanocytes [1]; 6% w/v D-ribose): site, that is, the tanned area is about four inches | Days to maximum tan (melanocytes [1]; 6% w/v D-ribose in lotion): Six | Days to first sign of tanning (melanocytes [1]; 6% w/v D-ribose in lotion): Four | Spread of tanned area beyond the application site (melanocytes [1]; 6% w/v D-ribose): spread about two inches beyond the application | Color of tan compared with other concentration (melanocytes [1]; 10% w/v D-ribose): the same as for the 6%. | Diameter of tanned area (melanocytes [1]; 10% w/v D-ribose): is now about eight inches in diameter. Color is | Days to maximum tan (melanocytes [1]; 10% w/v D-ribose in lotion): Six | Days to first sign of tanning (melanocytes [1]; 10% w/v D-ribose in lotion): Four | Spread of tanned area beyond the application site (melanocytes [1]; 10% w/v D-ribose): The tanned area has spread about three inches | Day at which color began to fade (melanocytes [1]; [5]): 14 days | Time after last application until color was gone (melanocytes [1]; [5]): about two | Intensity of tan reached (melanocytes [1]; fair-skinned subject): medium intensity | Quality of tan color (melanocytes [1]; fair-skinned subject): identical to that resulting from normal sun tanning | Tanning by day three (melanocytes [2]; 4% D-ribose in lotion, back of forearm, all four areas (applied one, two, three, four days)): lightly tanned | Time after application at which areas began fading (melanocytes [2]; [6]): one | Time until completely faded (melanocytes [2]; [6]): ten | Time after application at which areas began fading (melanocytes [2]; [7]): one | Time after last application until completely faded (melanocytes [2]; [7]): ten | Tanning of areas of vitilago and scarring (melanocytes [2]; subject's areas of vitilago and a scar): did not tan | Effect on freckles (melanocytes [2]; subject's freckles): got darker | Uniformity of tanned area (skin (tanning); all experiments): uniform and not blotchy | Persistence of tan after application was discontinued (skin (tanning); [8]): two | Time to maximum darkness (skin (tanning); [8]): five | Spread of color beyond area of application (skin (tanning); upper front thigh, twice a day for five days, D-ribose at 4% in lotion): spread beyond the area of application | Effect on tanning (skin; D-ribose in water applied to the skin, no penetrant): no effect on tanning | Effect on improving skin (skin; preliminary application of ribose without penetrant): unsuccessful | Effect on face wrinkles [3, 9]: reduce face wrinkles | Tanning effect [3, 9]: No tanning effect | Melanin formation ([3]; lower amounts of D-ribose, as noted in the '707 application): do not stimulate melanin formation | Effect on fibroblasts subjected to hypoxic shock [4]: protective effect | Effect on growth of lymphocytes (lymphocytes): stimulates the growth of lymphocytes | Effect on ATP levels in skeletal muscle (skeletal muscle ATP): raises ATP levels in skeletal muscle
